The nature of assay [1]: viability of PTEN-deleted HCT116 cells – cell-based, HCT116 PTEN knockout, dose response (AID 1047).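 Also: HCT116 colon tumor cells with PTEN knocked out; cells exposed to compound for 60 hours before readout; potency for loss of cell viability measured by luminescence.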 It counts as functional.
The nature of assay [2]: viability of HCT116 lacking mutant beta-catenin – cell-based, human colon tumor, dose response (AID 1045).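 Also: HCT116 colon tumor cells with beta catenin knocked out; cells exposed to compound for 60 hours.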 It counts as functional.
For assay [3], the target named is X-box-binding protein 1 (Homo sapiens, UniProt P17861). The class given is functional, Cricetulus griseus.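 Also: confirmatory dose-response counter-screen serving a CHOP assay.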
Chain of X-box-binding protein 1 (P17861 whole entry): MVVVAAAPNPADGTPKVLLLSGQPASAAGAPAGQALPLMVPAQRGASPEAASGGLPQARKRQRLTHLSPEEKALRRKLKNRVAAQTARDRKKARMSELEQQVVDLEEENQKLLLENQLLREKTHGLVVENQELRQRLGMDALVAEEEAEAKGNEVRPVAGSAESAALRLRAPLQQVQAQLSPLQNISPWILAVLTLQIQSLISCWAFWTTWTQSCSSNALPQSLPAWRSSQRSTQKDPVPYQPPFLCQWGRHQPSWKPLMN
Assay [4] can be described thus: viability of uninfected HEp-2 cells – cell-based, HTS, cytotoxicity control for RSV inhibitor project, dose response (AID 2410). The class given is functional. Particulars: human respiratory syncytial virus.
Assay [5] deals with T1, Caspase-3 (Homo sapiens, UniProt P42574).
T1 sequence (P42574 whole entry): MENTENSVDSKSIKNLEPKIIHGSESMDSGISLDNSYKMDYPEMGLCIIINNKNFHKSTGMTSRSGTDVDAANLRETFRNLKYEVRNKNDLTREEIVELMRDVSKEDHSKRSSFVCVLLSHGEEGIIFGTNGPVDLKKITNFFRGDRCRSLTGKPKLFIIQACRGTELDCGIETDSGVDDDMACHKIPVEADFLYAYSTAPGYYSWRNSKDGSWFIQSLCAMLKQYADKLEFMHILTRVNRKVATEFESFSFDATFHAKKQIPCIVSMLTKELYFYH
Description: activators of human procaspase-3 D3A mutant – biochemical, absorbance, PC-3 D3A mutant, counter-screen for dual procaspase-3/7 activator project, dose response (AID 504328). (In general: Counterscreens check selectivity or assay interference.)

Assay [6] has as its target Caspase-7 (Homo sapiens, UniProt P55210). Description: potency of procaspase-7 enzyme activation – biochemical, absorbance, human, dual procaspase-3/-7 activator project, dose response (AID 504330).
In assay [7] the target is Protein Rev (Human immunodeficiency virus type 1 group M subtype B (isolate HXB2)(HIV-1), UniProt P04618). The assay is described as follows: blockers of HIV Rev/RRE RNA complex – biochemical, fluorescence polarization, HIV-1, dose response (AID 434976). On the set-up: species or system Human immunodeficiency virus 1.
Chain of Protein Rev (P04618 whole entry): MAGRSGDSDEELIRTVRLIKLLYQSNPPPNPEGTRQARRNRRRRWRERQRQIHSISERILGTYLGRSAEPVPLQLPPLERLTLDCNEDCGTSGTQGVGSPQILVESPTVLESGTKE
Assay [8] has as its target Female germline-specific tumor suppressor gld-1 (Caenorhabditis elegans, UniProt Q17339). Description: blockers of GLD-1/TGE RNA complex formation – biochemical, fluorescence polarization, C. elegans, dose response (AID 2802).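 Also: fluorescence polarization of labeled TGE RNA bound by purified gld-1 protein.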 A general note: Fluorescence polarisation rises when a labelled molecule tumbles more slowly, as on binding a larger partner.
In assay [9] the target is Estrogen receptor beta (Homo sapiens, UniProt Q92731).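 Also: recombinant ER-beta bound to coactivator SRC1 peptide in presence of estradiol agonist; inhibitors block coactivator peptide binding and lower the FRET signal.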
Chain of Estrogen receptor beta (Q92731 whole entry): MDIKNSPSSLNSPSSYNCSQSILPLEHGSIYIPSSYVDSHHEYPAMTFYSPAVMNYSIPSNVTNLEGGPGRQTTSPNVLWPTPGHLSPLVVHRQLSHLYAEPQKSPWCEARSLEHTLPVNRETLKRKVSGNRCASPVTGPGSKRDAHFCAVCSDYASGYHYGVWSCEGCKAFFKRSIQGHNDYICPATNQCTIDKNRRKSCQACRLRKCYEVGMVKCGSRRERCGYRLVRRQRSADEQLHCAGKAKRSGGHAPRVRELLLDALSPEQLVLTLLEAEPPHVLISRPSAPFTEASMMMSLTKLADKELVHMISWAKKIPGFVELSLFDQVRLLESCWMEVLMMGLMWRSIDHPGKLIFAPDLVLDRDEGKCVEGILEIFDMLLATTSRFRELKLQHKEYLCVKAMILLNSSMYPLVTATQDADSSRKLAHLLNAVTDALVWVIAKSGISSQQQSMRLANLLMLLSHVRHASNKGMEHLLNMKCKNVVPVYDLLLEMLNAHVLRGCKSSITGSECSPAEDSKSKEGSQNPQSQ
Assay [10] concerns H9c2. The assay is described as follows: cells. It counts as functional, cell-based. The conditions noted are these: Rattus norvegicus, H9c2, Myocardium.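 Also: confirmatory concentration-response retest of ultra-high-throughput screening hits for modulation of myocardial damage; cell death induced by hydrogen peroxide oxidative stress; compound pretreatment for 60 min then peroxide exposure for 2 h; potency is for protecting the cells against peroxide damage rather than for killing them.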
Assay [11] deals with T2, Sentrin-specific protease 1 (Homo sapiens, UniProt Q9P0U3).
T2 sequence (Q9P0U3 whole entry): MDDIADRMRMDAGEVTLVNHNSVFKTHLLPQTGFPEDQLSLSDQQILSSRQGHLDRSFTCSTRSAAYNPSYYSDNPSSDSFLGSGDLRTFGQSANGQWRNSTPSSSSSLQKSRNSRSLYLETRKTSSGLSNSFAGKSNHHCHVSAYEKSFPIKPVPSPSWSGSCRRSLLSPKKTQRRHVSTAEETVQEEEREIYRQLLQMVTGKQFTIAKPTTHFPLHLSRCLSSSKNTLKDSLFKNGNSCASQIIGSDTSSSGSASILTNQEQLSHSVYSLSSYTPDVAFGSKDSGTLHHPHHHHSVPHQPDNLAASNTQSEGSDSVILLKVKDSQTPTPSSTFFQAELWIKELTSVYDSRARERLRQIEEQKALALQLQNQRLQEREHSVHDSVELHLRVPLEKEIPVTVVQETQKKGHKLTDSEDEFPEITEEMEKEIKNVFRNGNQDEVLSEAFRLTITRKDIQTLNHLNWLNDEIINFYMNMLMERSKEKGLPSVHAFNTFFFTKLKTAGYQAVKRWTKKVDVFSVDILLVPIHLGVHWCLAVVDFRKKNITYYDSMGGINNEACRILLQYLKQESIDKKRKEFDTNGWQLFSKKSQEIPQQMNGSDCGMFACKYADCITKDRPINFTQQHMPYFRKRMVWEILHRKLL
The assay is described as follows: SENP1 catalytic domain blockers, concentration series – biochemical, kinetic FRET, dose response (AID 651697). The class given is functional. The conditions noted are these: read-out: IC50_Mean.

Assay [12] addresses T2, Sentrin-specific protease 1. The assay is described as follows: Dose response confirmation of small molecule inhibitors of the catalytic domain of the SUMO protease, SENP1 in a FRET assay. The class given is functional. The conditions noted are these: read-out: IC50_Mean.
Assay [13] concerns Salmon testes DNA. The assay is described as follows: acridine orange-DNA binding displacement – biochemical, fluorescence polarization, cherry-picked samples, set 2, artefact control for KSHV LANA DNA-binding inhibitor project, dose response (AID 504727). Also on record: species or system Salmonidae.
The target in assay [14] is ORF 73 (Human herpesvirus 8, UniProt O40947). The assay is described as follows: KSHV LANA DNA-binding disruption – biochemical, fluorescence polarization, cherry-picked samples, dose response (AID 504725).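 Also: fluorescence polarization of a labeled DNA duplex reporting LANA DNA binding; potency is for inhibitors that block LANA binding to the DNA.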 Also on record: species or system Human gammaherpesvirus 8.
For assay [15], the target named is Potassium voltage-gated channel subfamily KQT member 2 (Rattus norvegicus, UniProt O88943). Description: potentiation of rat KCNQ2 current – cell-based, retigabine-insensitive compounds, dose response (AID 2654). It counts as functional.
Chain of Potassium voltage-gated channel subfamily KQT member 2 (O88943 whole entry): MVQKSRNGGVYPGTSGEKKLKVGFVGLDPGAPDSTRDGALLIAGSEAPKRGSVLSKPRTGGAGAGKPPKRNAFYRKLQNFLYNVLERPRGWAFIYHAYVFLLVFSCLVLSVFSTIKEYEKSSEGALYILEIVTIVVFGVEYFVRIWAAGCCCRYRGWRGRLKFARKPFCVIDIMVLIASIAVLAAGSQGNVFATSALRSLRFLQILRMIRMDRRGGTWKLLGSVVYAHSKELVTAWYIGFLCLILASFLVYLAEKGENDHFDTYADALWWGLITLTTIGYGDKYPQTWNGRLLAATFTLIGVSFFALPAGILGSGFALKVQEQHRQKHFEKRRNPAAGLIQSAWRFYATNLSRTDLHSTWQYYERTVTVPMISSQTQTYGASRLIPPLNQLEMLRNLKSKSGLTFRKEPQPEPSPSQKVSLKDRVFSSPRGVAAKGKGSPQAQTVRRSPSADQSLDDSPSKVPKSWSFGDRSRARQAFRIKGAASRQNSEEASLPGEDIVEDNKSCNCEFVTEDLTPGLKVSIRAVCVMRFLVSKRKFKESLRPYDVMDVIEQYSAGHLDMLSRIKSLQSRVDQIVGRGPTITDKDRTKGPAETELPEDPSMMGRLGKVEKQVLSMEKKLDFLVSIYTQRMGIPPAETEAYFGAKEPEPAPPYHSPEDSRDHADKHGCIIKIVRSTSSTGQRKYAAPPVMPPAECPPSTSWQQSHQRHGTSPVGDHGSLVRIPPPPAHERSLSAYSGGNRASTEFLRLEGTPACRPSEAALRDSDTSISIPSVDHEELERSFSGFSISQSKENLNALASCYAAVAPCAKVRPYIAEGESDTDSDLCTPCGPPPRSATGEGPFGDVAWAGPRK
Assay [16] has as its target T3, RNA-binding protein pos-1 (Caenorhabditis elegans, UniProt G5EF15).
T3 sequence (G5EF15 whole entry): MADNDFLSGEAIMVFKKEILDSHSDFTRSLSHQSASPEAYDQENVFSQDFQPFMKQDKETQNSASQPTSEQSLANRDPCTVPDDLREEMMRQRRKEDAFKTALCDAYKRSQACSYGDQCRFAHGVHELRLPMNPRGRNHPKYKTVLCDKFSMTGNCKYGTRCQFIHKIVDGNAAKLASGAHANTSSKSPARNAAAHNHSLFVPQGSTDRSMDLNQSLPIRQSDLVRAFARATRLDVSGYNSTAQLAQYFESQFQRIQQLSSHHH
Description: disruptors of C. elegans POS-1 RNA interaction – biochemical, fluorescence polarization, dose response (AID 1964).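 Also: purified POS-1 fused to maltose binding protein made in E. coli; potency of compounds blocking POS-1 binding to fluorescent RNA.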

In assay [17] the target is T4, SUMO-activating enzyme (Homo sapiens, UniProt Q9UBT2). Description: blockers of UBC9-mediated SUMO conjugation – biochemical, AlphaScreen, SUMOylation inhibitor project, confirmation (AID 2018). The class given is functional.
T4 sequence (Q9UBE0 whole entry): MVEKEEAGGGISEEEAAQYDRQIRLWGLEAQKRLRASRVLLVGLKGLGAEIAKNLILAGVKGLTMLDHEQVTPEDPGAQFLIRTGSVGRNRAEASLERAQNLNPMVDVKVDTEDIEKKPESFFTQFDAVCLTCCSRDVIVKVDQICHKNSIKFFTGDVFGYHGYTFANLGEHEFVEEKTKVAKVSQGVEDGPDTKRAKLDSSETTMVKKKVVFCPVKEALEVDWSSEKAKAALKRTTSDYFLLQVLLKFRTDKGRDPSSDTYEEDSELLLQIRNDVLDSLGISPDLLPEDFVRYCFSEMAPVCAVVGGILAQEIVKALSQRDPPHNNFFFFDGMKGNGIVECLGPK
T4 sequence (Q9UBT2 whole entry): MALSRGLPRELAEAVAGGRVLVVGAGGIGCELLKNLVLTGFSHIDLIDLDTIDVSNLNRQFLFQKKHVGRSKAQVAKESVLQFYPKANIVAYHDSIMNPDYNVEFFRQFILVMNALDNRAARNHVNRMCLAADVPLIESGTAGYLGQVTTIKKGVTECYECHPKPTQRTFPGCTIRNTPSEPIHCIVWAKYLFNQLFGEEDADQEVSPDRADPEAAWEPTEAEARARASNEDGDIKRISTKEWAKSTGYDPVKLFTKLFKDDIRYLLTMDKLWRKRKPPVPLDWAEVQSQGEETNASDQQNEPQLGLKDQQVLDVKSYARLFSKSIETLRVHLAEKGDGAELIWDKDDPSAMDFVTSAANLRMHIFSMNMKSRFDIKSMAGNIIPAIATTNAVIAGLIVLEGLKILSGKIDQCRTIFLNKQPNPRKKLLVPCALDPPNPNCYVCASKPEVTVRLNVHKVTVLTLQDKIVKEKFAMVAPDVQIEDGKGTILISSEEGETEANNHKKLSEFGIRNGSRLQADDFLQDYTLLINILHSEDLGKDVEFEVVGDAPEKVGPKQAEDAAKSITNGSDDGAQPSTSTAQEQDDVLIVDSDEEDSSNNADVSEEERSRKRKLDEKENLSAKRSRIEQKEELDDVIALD
The target in assay [18] is T5, Zinc finger protein mex-5 (Caenorhabditis elegans, UniProt Q9XUB2).
T5 sequence (Q9XUB2 whole entry): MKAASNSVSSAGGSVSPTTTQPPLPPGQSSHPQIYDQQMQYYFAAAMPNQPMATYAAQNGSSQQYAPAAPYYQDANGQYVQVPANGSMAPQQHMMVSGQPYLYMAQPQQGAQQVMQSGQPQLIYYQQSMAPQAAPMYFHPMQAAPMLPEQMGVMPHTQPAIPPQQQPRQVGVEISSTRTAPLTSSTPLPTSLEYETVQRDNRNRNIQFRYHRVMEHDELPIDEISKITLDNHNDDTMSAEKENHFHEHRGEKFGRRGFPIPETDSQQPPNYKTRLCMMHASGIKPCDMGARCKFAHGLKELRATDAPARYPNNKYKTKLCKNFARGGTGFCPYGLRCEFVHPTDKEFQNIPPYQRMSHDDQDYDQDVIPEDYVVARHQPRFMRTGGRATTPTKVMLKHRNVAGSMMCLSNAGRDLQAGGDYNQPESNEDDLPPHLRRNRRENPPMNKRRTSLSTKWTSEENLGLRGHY
Description: potency of MEX-5 RNA-binding blockers – biochemical, C. elegans, fluorescence polarization, dose response (AID 1960).

The target in assay [19] is T4, SUMO-activating enzyme. The assay is described as follows: blockers of SAE1/SAE2–UBC9 SUMO transfer – biochemical, HTRF, uHTS, primary screen (AID 2006). It counts as protein-complex assay.
The target in assay [20] is Intestinal-type alkaline phosphatase (Mus musculus, UniProt P24822). The assay is described as follows: PubChem AID 488874. The class given is functional.
Chain of Intestinal-type alkaline phosphatase (Mus musculus, UniProt P24822) (P24822 whole entry): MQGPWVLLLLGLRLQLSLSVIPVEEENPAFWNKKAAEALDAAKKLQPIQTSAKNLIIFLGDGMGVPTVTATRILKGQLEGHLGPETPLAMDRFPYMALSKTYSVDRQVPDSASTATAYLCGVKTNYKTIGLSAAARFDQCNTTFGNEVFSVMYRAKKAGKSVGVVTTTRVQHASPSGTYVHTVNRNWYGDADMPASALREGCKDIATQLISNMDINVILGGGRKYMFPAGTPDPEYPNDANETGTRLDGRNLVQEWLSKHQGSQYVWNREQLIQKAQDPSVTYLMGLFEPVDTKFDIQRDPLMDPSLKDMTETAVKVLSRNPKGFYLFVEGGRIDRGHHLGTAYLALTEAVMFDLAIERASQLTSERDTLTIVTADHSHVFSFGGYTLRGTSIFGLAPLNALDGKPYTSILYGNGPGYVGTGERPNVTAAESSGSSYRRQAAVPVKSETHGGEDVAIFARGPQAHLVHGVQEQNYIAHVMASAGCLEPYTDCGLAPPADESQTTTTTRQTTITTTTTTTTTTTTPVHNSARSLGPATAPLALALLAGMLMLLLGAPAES
In assay [21] the target is T6, Intestinal-type alkaline phosphatase (Homo sapiens, UniProt P09923). The assay is described as follows: human intestinal alkaline phosphatase activators, dose response, biochemical, luminescence, uHTS hits (AID 463120). The class given is functional.
T6 sequence (P09923 whole entry): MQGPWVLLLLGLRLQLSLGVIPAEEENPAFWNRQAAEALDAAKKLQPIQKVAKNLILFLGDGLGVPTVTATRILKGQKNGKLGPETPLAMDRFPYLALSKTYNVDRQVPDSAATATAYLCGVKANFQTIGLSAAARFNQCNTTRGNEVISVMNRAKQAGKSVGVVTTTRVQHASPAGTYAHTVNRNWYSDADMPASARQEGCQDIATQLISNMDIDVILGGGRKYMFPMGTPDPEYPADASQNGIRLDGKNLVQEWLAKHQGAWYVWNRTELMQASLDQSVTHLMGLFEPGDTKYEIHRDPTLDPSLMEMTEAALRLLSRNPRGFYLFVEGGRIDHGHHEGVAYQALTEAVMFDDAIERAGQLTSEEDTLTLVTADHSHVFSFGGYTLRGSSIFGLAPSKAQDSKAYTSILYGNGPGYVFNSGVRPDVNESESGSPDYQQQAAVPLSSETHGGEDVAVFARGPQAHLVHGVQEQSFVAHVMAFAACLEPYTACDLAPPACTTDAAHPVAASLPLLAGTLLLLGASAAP
In assay [22] the target is T6, Intestinal-type alkaline phosphatase. Description: activation of human intestinal alkaline phosphatase – biochemical, luminescent, uHTS hits, set 2, dose response (AID 488817).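 Also: potency of activators that raise enzyme activity.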 It counts as functional.
Assay [23] deals with T7, Alkaline phosphatase, tissue-nonspecific isozyme (Homo sapiens, UniProt P05186).
T7 sequence (P05186 whole entry): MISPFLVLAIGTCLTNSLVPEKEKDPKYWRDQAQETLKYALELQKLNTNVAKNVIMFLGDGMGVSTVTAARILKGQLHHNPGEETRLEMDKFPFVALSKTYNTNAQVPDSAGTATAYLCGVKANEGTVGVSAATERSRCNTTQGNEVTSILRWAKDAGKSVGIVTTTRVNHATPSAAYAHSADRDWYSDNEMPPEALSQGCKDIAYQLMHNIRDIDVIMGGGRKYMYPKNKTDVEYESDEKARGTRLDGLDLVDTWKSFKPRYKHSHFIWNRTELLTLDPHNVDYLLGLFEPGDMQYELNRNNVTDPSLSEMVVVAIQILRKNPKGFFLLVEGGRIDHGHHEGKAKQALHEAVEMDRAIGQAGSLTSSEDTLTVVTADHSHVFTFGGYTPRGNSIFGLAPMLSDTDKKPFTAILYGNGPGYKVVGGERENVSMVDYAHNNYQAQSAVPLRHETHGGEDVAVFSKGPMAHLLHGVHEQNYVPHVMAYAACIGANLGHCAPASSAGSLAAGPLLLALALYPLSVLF
Description: activation of tissue-nonspecific alkaline phosphatase – biochemical, TNAP isozyme, human IAP uHTS hits, selectivity assay for human IAP activator project, dose response (AID 488886).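 Also: potency of compounds raising TNAP activity as a selectivity check on IAP activators.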 The class given is functional.

Assay [24] has as its target T8, Polyadenylate-binding protein 1 (Homo sapiens, UniProt P11940). The assay is described as follows: MLLE binding blockers, Cy5 peptide tracer – biochemical, fluorescence polarization, Cy5-PAM2 peptide, secondary, miRNA deadenylation inhibitor project, dose response (AID 602260). It counts as functional. Particulars: read-out: IC50_Mean.
Assay [25] addresses T8, Polyadenylate-binding protein 1. The assay is described as follows: MLLE domain peptide-binding blockers, IC50 – biochemical, fluorescence polarization, FITC-PAM2 peptide, dose response (AID 602259). Particulars: read-out: IC50_Mean. It counts as functional.
Assay [26] is described as follows: bead-based luminescence quenchers, dual-tagged ARNT – biochemical, AlphaScreen, cherry-pick, artefact control for ARNT-TACC3 interaction inhibitor project, dose response (AID 651705).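 Also: AlphaScreen bead proximity signal that flags compounds interfering with the detection technology; potency reflects signal decrease which marks the compound as an assay artifact.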 It counts as functional. For orientation: Bead proximity is the source of the signal in Alpha formats.

Structures can show the parent of a compound that is named as a salt. The source made the active and inactive calls.

T8 sequence (P11940 whole entry, the tested form may be a part): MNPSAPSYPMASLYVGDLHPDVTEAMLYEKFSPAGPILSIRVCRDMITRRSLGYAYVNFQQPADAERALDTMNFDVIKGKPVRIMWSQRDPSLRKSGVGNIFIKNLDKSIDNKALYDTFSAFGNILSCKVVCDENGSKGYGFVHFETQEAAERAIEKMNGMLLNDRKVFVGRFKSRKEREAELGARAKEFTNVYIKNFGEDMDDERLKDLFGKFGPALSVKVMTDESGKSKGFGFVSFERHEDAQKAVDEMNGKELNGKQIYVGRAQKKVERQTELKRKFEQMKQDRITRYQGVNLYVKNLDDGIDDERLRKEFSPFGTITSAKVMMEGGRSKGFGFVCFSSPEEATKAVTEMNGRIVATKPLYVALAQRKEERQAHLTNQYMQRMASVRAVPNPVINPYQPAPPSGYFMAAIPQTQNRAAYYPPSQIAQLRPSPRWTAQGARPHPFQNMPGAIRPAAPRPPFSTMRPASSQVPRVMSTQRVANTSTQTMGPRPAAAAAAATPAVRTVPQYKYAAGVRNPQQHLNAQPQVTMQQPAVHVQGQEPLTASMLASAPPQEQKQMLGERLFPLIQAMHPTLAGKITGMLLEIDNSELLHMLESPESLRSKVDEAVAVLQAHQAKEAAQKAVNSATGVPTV
Chain of Female germline-specific tumor suppressor gld-1 (Q17339 whole entry): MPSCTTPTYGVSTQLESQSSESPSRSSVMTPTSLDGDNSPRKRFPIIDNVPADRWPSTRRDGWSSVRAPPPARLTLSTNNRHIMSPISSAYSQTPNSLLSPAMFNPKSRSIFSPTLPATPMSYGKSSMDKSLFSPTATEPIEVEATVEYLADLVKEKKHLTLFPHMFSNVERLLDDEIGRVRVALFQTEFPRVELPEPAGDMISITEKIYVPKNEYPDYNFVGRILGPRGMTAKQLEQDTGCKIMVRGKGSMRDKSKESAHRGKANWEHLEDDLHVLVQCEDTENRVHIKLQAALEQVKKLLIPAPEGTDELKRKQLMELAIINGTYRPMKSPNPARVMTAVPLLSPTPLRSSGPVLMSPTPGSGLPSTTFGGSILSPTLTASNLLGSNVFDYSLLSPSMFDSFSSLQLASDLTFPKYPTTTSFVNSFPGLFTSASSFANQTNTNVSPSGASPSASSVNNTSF

Usually EC50 stands for the concentration needed to bring the measured effect to its halfway point. For the compound `COc1ccc(-c2[nH]ncc2/C=C(/C#N)C(=O)NC2CCCCCC2)cc1`, the EC50 in assay [1] is 12.6 µM (active); in assay [2], 11.3 µM (active). The “Absolute IC50 (XBP1)” value in assay [3] is 10 µM.
As a reminder, the CC50 is the concentration that lowers cell viability or growth by half. For the compound `COc1cc2c(cc1OC)C(C)N(C(=O)c1cc3c(s1)-c1ccccc1OC3)CC2` (configuration not stated), the CC50 in assay [4] is 27.4 µM (active). Also, the EC50 in [5] and in assay [6] was > 85.3 µM (inactive) each time.
As to `COc1ccc(Nc2nnc(SCc3cc(=O)n4ccsc4n3)s2)cc1`, the IC50 is > 75.4 µM (not active) in assay [7]; 45.5 µM (inactive) in assay [8]; > 50 µM (not active) in assay [9]; 7.45 µM (active) in [10]; 26.2 µM (inactive) in assay [11]; 16.3 µM (active) in assay [12]. Besides, in [4], the cytotoxic concentration (CC50) was 36.5 µM (active).
As usually defined, the AC50 is the midpoint of the concentration-response curve, whichever way the signal moves. Consider `Cc1ccc(N(CC(=O)N2CCOCC2)S(C)(=O)=O)cc1`, for which the AC50 was 70.1 µM (active) in [13] and 20.1 µM (active) in [14].
Take `Cc1cccc(NC(=O)Nc2cccnc2)c1`: the EC50 in [15] was 16.8 µM (active).
Turning to `NC(CO)C(=O)NNCc1ccc(O)c(O)c1O` (configuration not stated) [BENSERAZIDE HYDROCHLORIDE], the EC50 in assay [16] was 37.5 µM (active); in assay [18] it was 112 nM (active); in assay [21], 5.47 µM (active); in assay [22], 8.88 µM (active); in assay [23], > 100 µM (inactive). The IC50 was 1.66 µM (active) in assay [17]; 23.2 µM (active) in assay [19]; 50.9 µM (active) in [20]; > 66 µM (inactive) in assay [24]; 45 µM (inactive) in [25]. The AC50 in assay [26] was 96.7 µM (active).
